# According to ChEMBL document CHEMBL1149126, “3-phenyl-6-(2-pyridyl)methyloxy-1,2,4-triazolo[3,4-a]phthalazines and analogues: high-affinity gamma-aminobutyric acid-A benzodiazepine receptor ligands with alpha 2, alpha 3, and alpha 5-subtype binding selectivity over alpha 1” (J Med Chem, 2004):
# Experiments:
# [1] = target: T1, GABA-A receptor; alpha-1/beta-3/gamma-2 (Homo sapiens, UniProt P14867+P18507+P28472); test: Binding affinity for human GABA-A receptor alpha-1-beta-3-gamma-2 subunits in L(tk-) cells
# T1 sequence (P14867 whole entry): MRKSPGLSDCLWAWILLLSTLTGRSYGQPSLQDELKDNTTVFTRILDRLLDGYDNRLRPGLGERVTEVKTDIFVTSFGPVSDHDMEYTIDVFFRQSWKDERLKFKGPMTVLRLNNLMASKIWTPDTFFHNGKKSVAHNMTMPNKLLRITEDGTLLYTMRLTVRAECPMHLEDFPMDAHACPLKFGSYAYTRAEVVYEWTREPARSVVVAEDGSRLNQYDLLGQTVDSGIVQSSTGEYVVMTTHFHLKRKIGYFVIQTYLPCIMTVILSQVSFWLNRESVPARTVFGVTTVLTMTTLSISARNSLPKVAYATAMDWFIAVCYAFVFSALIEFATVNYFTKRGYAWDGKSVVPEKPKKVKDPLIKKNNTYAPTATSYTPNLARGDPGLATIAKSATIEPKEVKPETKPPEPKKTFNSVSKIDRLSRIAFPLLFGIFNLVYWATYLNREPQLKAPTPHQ
# T1 sequence (P18507 whole entry): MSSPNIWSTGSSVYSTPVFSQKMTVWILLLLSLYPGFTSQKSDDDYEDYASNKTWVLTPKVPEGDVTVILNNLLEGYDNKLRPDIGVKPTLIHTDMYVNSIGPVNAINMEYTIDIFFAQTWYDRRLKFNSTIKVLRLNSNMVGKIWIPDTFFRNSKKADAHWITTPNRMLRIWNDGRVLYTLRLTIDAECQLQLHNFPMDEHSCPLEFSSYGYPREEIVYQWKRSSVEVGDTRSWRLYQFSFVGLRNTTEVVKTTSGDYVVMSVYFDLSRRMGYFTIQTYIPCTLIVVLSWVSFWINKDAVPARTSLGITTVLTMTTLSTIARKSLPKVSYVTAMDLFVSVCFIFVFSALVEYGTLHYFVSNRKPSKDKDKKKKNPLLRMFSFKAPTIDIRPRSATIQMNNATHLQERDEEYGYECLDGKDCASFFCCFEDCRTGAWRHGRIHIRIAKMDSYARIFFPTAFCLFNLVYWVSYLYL
# T1 sequence (P28472 whole entry): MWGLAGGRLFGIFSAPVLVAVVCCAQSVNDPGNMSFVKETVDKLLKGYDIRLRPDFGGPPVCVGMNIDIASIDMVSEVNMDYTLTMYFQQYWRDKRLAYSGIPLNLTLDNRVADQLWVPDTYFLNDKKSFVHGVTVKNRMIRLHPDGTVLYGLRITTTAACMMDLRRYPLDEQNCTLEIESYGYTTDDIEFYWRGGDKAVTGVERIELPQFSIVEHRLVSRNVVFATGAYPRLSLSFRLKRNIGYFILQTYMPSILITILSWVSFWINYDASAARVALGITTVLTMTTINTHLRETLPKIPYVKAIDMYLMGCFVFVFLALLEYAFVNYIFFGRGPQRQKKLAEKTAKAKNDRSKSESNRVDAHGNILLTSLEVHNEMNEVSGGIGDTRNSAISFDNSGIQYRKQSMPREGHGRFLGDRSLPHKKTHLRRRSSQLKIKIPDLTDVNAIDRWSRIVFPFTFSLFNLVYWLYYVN
# [2] = target: T2, GABA-A receptor; alpha-3/beta-3/gamma-2 (Homo sapiens, UniProt P18507+P28472+P34903); test: Binding affinity for human GABA-A receptor alpha-3-beta-3-gamma-2 subunits in L(tk-) cells; type: cell-based
# T2 sequence (P18507 whole entry): T1 sequence (P18507 whole entry)
# T2 sequence (P28472 whole entry): T1 sequence (P28472 whole entry)
# T2 sequence (P34903 whole entry): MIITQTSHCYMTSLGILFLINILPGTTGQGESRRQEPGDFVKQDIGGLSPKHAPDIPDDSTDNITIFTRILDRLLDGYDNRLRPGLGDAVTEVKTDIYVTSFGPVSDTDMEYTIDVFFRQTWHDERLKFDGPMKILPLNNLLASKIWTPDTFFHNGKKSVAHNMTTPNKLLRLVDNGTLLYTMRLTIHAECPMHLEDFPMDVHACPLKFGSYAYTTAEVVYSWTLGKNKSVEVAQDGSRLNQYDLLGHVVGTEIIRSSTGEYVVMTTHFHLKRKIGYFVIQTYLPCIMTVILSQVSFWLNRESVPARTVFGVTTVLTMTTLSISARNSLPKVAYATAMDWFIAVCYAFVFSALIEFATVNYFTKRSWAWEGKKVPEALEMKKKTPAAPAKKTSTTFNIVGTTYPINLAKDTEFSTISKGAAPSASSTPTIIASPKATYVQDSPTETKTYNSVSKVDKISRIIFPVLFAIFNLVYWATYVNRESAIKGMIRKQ
# [3] = target: T3, GABA-A receptor; alpha-2/beta-3/gamma-2 (Homo sapiens, UniProt P18507+P28472+P47869); test: Binding affinity for human GABA-A receptor alpha-2-beta-3-gamma-2 subunits in L(tk-) cells; type: cell-based
# T3 sequence (P18507 whole entry): T1 sequence (P18507 whole entry)
# T3 sequence (P28472 whole entry): T1 sequence (P28472 whole entry)
# T3 sequence (P47869 whole entry): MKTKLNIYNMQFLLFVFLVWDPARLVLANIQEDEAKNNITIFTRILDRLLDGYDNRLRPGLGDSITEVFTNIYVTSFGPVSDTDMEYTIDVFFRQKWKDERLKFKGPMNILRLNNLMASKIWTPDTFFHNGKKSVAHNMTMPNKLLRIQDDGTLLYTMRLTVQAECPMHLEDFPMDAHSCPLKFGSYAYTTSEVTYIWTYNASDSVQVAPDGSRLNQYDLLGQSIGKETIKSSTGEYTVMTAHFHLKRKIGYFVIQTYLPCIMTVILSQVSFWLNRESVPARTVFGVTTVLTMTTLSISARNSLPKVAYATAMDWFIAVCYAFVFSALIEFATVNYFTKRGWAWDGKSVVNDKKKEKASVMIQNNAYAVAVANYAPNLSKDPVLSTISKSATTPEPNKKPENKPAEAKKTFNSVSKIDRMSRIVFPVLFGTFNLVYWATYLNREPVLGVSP
# [4] = target: T4, GABA-A receptor; alpha-5/beta-3/gamma-2 (Homo sapiens, UniProt P18507+P28472+P31644); test: Binding affinity for human GABA-A receptor alpha-5-beta-3-gamma-2 subunits in L(tk-) cells; type: cell-based
# T4 sequence (P18507 whole entry): T1 sequence (P18507 whole entry)
# T4 sequence (P28472 whole entry): T1 sequence (P28472 whole entry)
# T4 sequence (P31644 whole entry): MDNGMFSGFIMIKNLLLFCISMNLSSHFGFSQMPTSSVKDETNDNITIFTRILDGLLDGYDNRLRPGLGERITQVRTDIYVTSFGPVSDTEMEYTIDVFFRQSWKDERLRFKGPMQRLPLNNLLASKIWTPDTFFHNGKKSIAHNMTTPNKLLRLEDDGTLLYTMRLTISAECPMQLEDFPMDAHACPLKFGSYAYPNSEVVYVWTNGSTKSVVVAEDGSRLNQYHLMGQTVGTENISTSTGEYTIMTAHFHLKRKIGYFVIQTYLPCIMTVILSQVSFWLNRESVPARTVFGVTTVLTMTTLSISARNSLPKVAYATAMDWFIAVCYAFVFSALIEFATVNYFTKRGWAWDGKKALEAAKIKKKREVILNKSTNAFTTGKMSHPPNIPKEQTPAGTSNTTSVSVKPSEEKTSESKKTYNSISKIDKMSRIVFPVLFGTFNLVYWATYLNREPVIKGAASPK
SMILES,Ki [1] [nM],Ki [2] [nM],Ki [3] [nM],Ki [4] [nM]
c1ccc(-c2nnc3c4ccccc4c(OCc4ccsc4)nn23)cc1,710,240,510,250
Cc1ccc2c(OCc3ccccn3)nn3c(-c4ccccc4)nnc3c2c1,> 1000,> 1000,> 1000,> 1000
c1ccc(-c2nnc3c4ccccc4c(OCC4CCNCC4)nn23)cc1,32,37,40,30
c1ccc(-c2nnc3c4ccccc4c(OCc4ccncn4)nn23)cc1,2.3,1.3,2.9,0.5
Cc1ccc(-c2nc3ccc(C)cn3c2CC(=O)N(C)C)cc1 [ZOLPIDEM],–,–,–,> 15000
CN(Cc1ccccc1)c1nn2c(-c3ccccc3)nnc2c2ccccc12,500,> 1000,> 1000,240
c1ccc(CCOc2nn3c(-c4ccccc4)nnc3c3ccccc23)cc1,380,720,> 1000,> 1000
CCOC(=O)c1ncn2c1[C@@H]1CCCN1C(=O)c1cc(OC)ccc1-2,44,11,22,0.4
Cn1ccnc1COc1nn2c(-c3ccccc3)nnc2c2ccccc12,0.51,0.22,0.7,0.17
COc1ccc(-c2nnc3c4ccccc4c(=O)n(Cc4ccccc4)n23)cc1,> 1000,> 1000,> 1000,> 1000
O=C1c2ccccc2C(=O)N1CCn1c(=O)c2ccccc2c(=O)n1Cc1ccccc1,–,1400,1800,4800
COc1ccc(-c2nnc3c4ccccc4c(OCc4ccccc4)nn23)cc1,–,170,850,72
c1ccc(Cc2nnc3c4ccccc4c(OCc4ccccn4)nn23)cc1,260,190,340,18
COc1cccc(COc2nn3c(-c4ccccc4)nnc3c3ccccc23)c1,800,66,170,150
COc1nn2c(-c3ccccc3)nnc2c2ccccc12,140,120,160,39
c1ccc(-c2nnc3c4ccccc4c(OCc4ccncc4)nn23)cc1,24,7.7,11,6.1
Fc1ccc(-c2nnc3c4ccccc4c(OCc4ccccn4)nn23)cc1,3.9,2.4,3.7,1.7
Cc1ccnc(COc2nn3c(-c4ccccc4)nnc3c3ccccc23)c1,18,10,11,3.7

SMILES,Ki [1] [nM],Ki [2] [nM],Ki [3] [nM],Ki [4] [nM]
Cc1ccc(-c2nnc3c4ccccc4c(OCc4ccccn4)nn23)cc1,–,11,16,4
c1ccc(COc2nn3c(C4CCC4)nnc3c3ccccc23)nc1,56,23,24,5.1
c1ccc(Oc2nn3c(-c4ccccc4)nnc3c3ccccc23)cc1,> 1000,> 1000,> 1000,> 1000
Cc1cccnc1COc1nn2c(-c3ccccc3)nnc2c2ccccc12,2.4,1,2.3,0.88
c1ccc(-c2nnc3c4ccccc4c(OCc4ccco4)nn23)cc1,250,180,270,74
COc1ccc(COc2nn3c(-c4ccccc4)nnc3c3ccccc23)cc1,200,190,220,160
c1ccc(-c2nnc3c4ccccc4c(OCc4cccs4)nn23)cc1,240,300,560,170
N#Cc1cccc(COc2nn3c(-c4ccccc4)nnc3c3ccccc23)c1,730,170,400,130
CC(C)(C)c1nnc2c3ccccc3c(OCc3ccccn3)nn12,> 1000,> 1000,> 1000,> 1000
Clc1ccccc1COc1nn2c(-c3ccccc3)nnc2c2ccccc12,> 1000,260,580,560
c1ccc(-c2nnc3c4ccccc4c(OCc4ccoc4)nn23)cc1,26,21,38,13
c1ccc(-c2nnc3c4ccccc4c(OCC4CCCCC4)nn23)cc1,> 1000,> 1000,> 1000,> 1000
Cc1ccc(COc2nn3c(-c4ccccc4)nnc3c3ccccc23)nc1,4.8,4.3,3.6,1.1
c1ccc(-c2nnc3c4ccccc4c(OCc4cnccn4)nn23)cc1,2,0.71,1.6,0.36
c1ccc(-c2nnc3c4ccccc4c(OCc4cccnc4)nn23)cc1,19,19,16,31
CCc1nnc2c3ccccc3c(OCc3ccccn3)nn12,250,53,130,16
COCCN(CCOC)c1nn2c(-c3ccc(OC)cc3)nnc2c2ccccc12,–,41,41,80
c1ccc(-c2nnc3c4ccccc4c(OCc4cccnn4)nn23)cc1,0.82,0.37,–,0.15
